Some test systems named below: DLD-1; KM-20L2; LXFL 529; M19-MEL; RXF 631; XF498; DMS-114; DMS-273; Hs-578T.
Common to all, as to assay: inhibition of tumour cell growth, NCI panel, 48 h

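Step 1: Grow cells in 96-well plates. Step 2: Expose to compound for 48 hours at 5 concentrations. Step 3: Interpolate endpoints linearly; if unreached, use highest concentration. Abbreviation: GI50, concentration required for 50% inhibition of growth.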 Activity calls are given as the source filed them. No stated cut-off is given here; in the data, active = GI50 up to about 1.1 µM and inactive = higher.

As for `O=c1c2cc(Br)ccc2nc(CCl)n1-c1ccc(O)c([N+](=O)[O-])c1`, the GI50 with DLD-1 is 17.7 µM (inactive); in the test on KM-20L2 it was 33 µM (inactive); in the test on LXFL 529, 20.9 µM (inactive); in the test with M19-MEL it was 19.8 µM (inactive); with RXF 631, > 10 µM (inactive); in the test on XF498, 15.4 µM (inactive).

Regarding `OCC1OC(c2nc(C3=NCCCN3)cs2)C(O)C1O` (stereo not given), the GI50 in the test with DLD-1, with DMS-114, in the test on DMS-273, with KM-20L2, in the test with LXFL 529 and in the test with M19-MEL was > 100 µM (inactive) in each case. The GI50 in the test on RXF 631 and with XF498 was > 100 µM (inactive) in each case.

Regarding `COC(=O)/C([Se]c1c(C)cc(C)cc1C)=C(/[Se]c1c(C)cc(C)cc1C)C(=O)OC`, the GI50 in the test on DLD-1 was > 100 µM (inactive); with DMS-114, > 99.3 µM (inactive); in the test on DMS-273, > 100 µM (inactive); with KM-20L2, > 100 µM (inactive); in the test with LXFL 529, > 100 µM (inactive); with M19-MEL it was > 100 µM (inactive). In the test on RXF 631, the GI50 is > 100 µM (inactive).

For the compound `Ic1cc2c(cc1C1SCCCS1)OCO2`, the GI50 in the test on DLD-1, in the test with DMS-114, in the test with DMS-273, in the test with KM-20L2, in the test with LXFL 529 and in the test on M19-MEL was > 100 µM (inactive) throughout. Besides, the GI50 with RXF 631 is > 100 µM (inactive).

Consider `CN(/N=C/c1cccc2cccnc12)c1ccc([N+](=O)[O-])cc1`, for which the GI50 in the test with DLD-1, in the test on DMS-114, in the test on DMS-273, with KM-20L2, in the test with LXFL 529 and in the test with M19-MEL was > 100 µM (inactive) each time. In addition, the GI50 with XF498 is > 100 µM (inactive).

As to `CCOc1cccc2nc3cccc(C(=O)NCCN(C)C)c3nc12`, the GI50 with DLD-1 is 1.05 µM (active); with DMS-114, 1.03 µM (active); in the test on DMS-273, 0.582 µM (active); in the test on KM-20L2, 1.27 µM (inactive); in the test on LXFL 529, 1.79 µM (inactive); in the test on M19-MEL it was 1.2 µM (inactive). The GI50 was 2.6 µM (inactive) in the test with RXF 631 and 0.116 µM (active) with XF498.

With `COc1cc(OC)c2c(c1)C(=O)C(CC1(C)OCCCO1)=CC2=O`, the GI50 with DLD-1 is 4.17 µM (inactive); with DMS-114, 6.11 µM (inactive); in the test with DMS-273 it was 7.48 µM (inactive); with KM-20L2 it was 14.1 µM (inactive); with LXFL 529 it was 6.12 µM (inactive); in the test on M19-MEL, 3.37 µM (inactive). For the same compound, the GI50 in the test with RXF 631 was 22.3 µM (inactive); with XF498, 9.48 µM (inactive).

Regarding `COc1ccc(NC(=O)C2C(=O)N(c3ccc(OC)cc3)C(=O)/C2=N\N)cc1` (stereo not given), the GI50 in the test on DLD-1, with DMS-114, in the test with KM-20L2, with LXFL 529, with M19-MEL and in the test on RXF 631 was > 100 µM (inactive) throughout.

As to `c1ccc2c(c1)N=C(c1ccc3ccccc3c1)CC(c1cccc3ccccc13)S2` (stereo not given), the GI50 was 11.6 µM (inactive) with DLD-1; 24.3 µM (inactive) in the test with DMS-114; 36.1 µM (inactive) with DMS-273; 43.5 µM (inactive) in the test with KM-20L2; 24.2 µM (inactive) in the test with LXFL 529; 29.9 µM (inactive) with M19-MEL. Further, the GI50 with RXF 631 is 34.4 µM (inactive); with XF498 it was 35 µM (inactive).

Consider `Clc1ccc(SCCSCCCCCCCCCCSCCSc2ccc(Cl)cc2)cc1`, for which the GI50 with DLD-1, in the test on DMS-114, with DMS-273, with KM-20L2 and in the test with RXF 631 was > 100 µM (inactive) in each case.

`CC(=O)OCC1=C(CCC#N)N2C(=O)C(NC(=O)Cc3cccs3)C2[S+]([O-])C1` (stereo not given): the GI50 in the test with DLD-1, in the test with DMS-114, with DMS-273, with KM-20L2, with M19-MEL and in the test on XF498 was > 100 µM (inactive) in each case.

Turning to `CC(C)CCC[C@@H](C)[C@H]1CC[C@H]2[C@@H]3CC=C4CC(OCCCCN(O)CCCSC5OC(CO)C(O)C(O)C5O)CC[C@]4(C)[C@H]3CC[C@]12C` (stereo not given in full), the GI50 with DLD-1 was 56.4 µM (inactive); with DMS-114, 25.5 µM (inactive); with DMS-273, 32 µM (inactive); with KM-20L2, > 100 µM (inactive); in the test on LXFL 529 it was 23 µM (inactive); with M19-MEL, > 100 µM (inactive). Also, the GI50 with XF498 was > 100 µM (inactive).

For `CC(=O)OCCOCNC(=S)N/N=C/c1ccc2ccccc2n1`, the GI50 in the test with DLD-1 was 54.1 µM (inactive); in the test on DMS-114 it was 22.6 µM (inactive); in the test with DMS-273 it was 36.1 µM (inactive); in the test with KM-20L2 it was 19.5 µM (inactive); with LXFL 529 it was 33.3 µM (inactive); with M19-MEL, 28.6 µM (inactive). Besides, the GI50 was 55.6 µM (inactive) with RXF 631 and > 100 µM (inactive) in the test with XF498.

In the case of `CN(C)c1nc(N(C)c2ccccc2)[s+]s1`, the GI50 is 92.3 µM (inactive) in the test with DLD-1; 30.8 µM (inactive) in the test on DMS-114; 47.2 µM (inactive) in the test on DMS-273; > 100 µM (inactive) in the test with KM-20L2; 36.8 µM (inactive) in the test with LXFL 529; 18.9 µM (inactive) in the test with M19-MEL. Besides, the GI50 in the test with XF498 was 20 µM (inactive).

As to `CCOC(=O)C1(Br)C(c2ccccc2)NC(=O)NC1(C)Br` (stereo not given), the GI50 was 55.7 µM (inactive) with DLD-1; 28.9 µM (inactive) in the test with DMS-114; 90.2 µM (inactive) in the test on DMS-273; > 100 µM (inactive) with KM-20L2; 92.5 µM (inactive) with LXFL 529; 64.1 µM (inactive) in the test with M19-MEL. The results for the GI50 with RXF 631 and in the test with XF498 were 46.6 µM (inactive) and 52.2 µM (inactive), respectively.

For the compound `CC(C)N(C(=O)C12C3C4C5(C#N)C3C1(C#N)C5C42C#N)C(C)C` (stereo not given), the GI50 in the test on DLD-1, with DMS-114, in the test on DMS-273, with KM-20L2, in the test on LXFL 529 and with M19-MEL was > 100 µM (inactive) in each case. Moreover, the GI50 in the test on XF498 is > 100 µM (inactive).

As to `COc1ccc(OC)c(NCC#N)c1`, the GI50 in the test on DMS-114, with DMS-273, in the test with KM-20L2, with M19-MEL, in the test with RXF 631 and in the test with XF498 was > 100 µM (inactive) in each case.

In the case of `CC(=O)OCCOCNC(=S)N/N=C/c1cc([N+](=O)[O-])ccc1O`, the GI50 in the test on DLD-1 was > 100 µM (inactive); in the test with DMS-114, 30.7 µM (inactive); in the test on DMS-273, > 100 µM (inactive); in the test with KM-20L2, 61.1 µM (inactive); in the test with LXFL 529, 93.8 µM (inactive); in the test with M19-MEL it was > 100 µM (inactive). Moreover, the GI50 with RXF 631 and with XF498 was > 100 µM (inactive) each time.

Turning to `O=C(CSc1nc(-c2ccccc2)c(-c2ccccc2)[nH]1)N/N=C/c1ccc([N+](=O)[O-])cc1`, the GI50 in the test with DLD-1 was 18.1 µM (inactive); with DMS-114 it was 18.5 µM (inactive); in the test on DMS-273, 14.1 µM (inactive); in the test with KM-20L2 it was 8.87 µM (inactive); with LXFL 529, 20.4 µM (inactive); with M19-MEL, 17.1 µM (inactive). Besides, in the test with XF498, the GI50 is 13.2 µM (inactive).

As to `Cc1c2cnccc2c(C)c2c1c1ccccc1n2CCCN`, the GI50 was 0.116 µM (active) in the test on DLD-1; 0.31 µM (active) with DMS-114; 0.133 µM (active) in the test on DMS-273; 0.374 µM (active) with Hs-578T; 0.183 µM (active) in the test with KM-20L2; 0.262 µM (active) in the test on M19-MEL. The GI50 with XF498 was 0.713 µM (active).

With `C[P+]1(c2ccccc2)CCCCC1`, the GI50 in the test on DLD-1, with DMS-114, in the test on DMS-273, in the test with KM-20L2, with LXFL 529 and with M19-MEL was > 100 µM (inactive) in each case. Further, in the test on RXF 631, the GI50 is > 100 µM (inactive).

For the compound `CCN1CCC(O)(/C=C/c2ccc(Cl)cc2)C(C(=O)/C=C/c2ccc(Cl)cc2)C1` (stereo not given), the GI50 in the test with DLD-1 was 16.5 µM (inactive); with DMS-114, 26.6 µM (inactive); with DMS-273 it was 28.4 µM (inactive); with KM-20L2, 32.1 µM (inactive); in the test on LXFL 529, 14.7 µM (inactive); with M19-MEL it was 29.9 µM (inactive). In the test on XF498, the GI50 is 81.1 µM (inactive).

With `C=CCCC12CCCC(=O)C1Sc1ccc3ccccc3c12` (stereo not given), the GI50 with DLD-1 was 22.4 µM (inactive); in the test with DMS-273, 5.38 µM (inactive); in the test with LXFL 529, 15.2 µM (inactive); in the test on M19-MEL, 24.1 µM (inactive); in the test with RXF 631, 11.6 µM (inactive).

In the case of `C=CCC1[C@@H](C(C)(C)C(C(C)=O)C(=O)C(=O)OC)OC(C(C)(C)C)N1C(=O)OC` (stereo not given in full), the GI50 in the test with DLD-1, in the test on KM-20L2, in the test on M19-MEL, in the test with RXF 631 and in the test with XF498 was > 100 µM (inactive) each time.

In the case of `NC(=O)c1csc(C2OC(CO)C(O)C2O)n1` (stereo not given), the GI50 is 8.57 µM (inactive) in the test on DLD-1; 61.1 µM (inactive) in the test on DMS-114; 30.8 µM (inactive) with DMS-273; 44.7 µM (inactive) in the test on Hs-578T; 43.8 µM (inactive) with KM-20L2; 29 µM (inactive) in the test with M19-MEL. Also, the GI50 in the test with XF498 is 67.8 µM (inactive).

Regarding `COc1cc2c(c(OC)c1OC)-c1ccc(SC)c(=O)cc1[C@@H](NC(=O)c1ccc(C#N)cc1)CC2`, the GI50 in the test with DLD-1, in the test with DMS-114, in the test on DMS-273, in the test on KM-20L2, with LXFL 529 and in the test with M19-MEL was < 0.01 µM (active) each time. Besides, the GI50 in the test with XF498 is < 0.01 µM (active).

For `COc1cc2c(c(OC)c1OC)-c1ccc(OC)c(=O)cc1[C@@H](N(C)C=O)CC2`, the GI50 is 0.0198 µM (active) with DLD-1; 0.0116 µM (active) in the test with DMS-273; 0.0133 µM (active) with KM-20L2; < 0.0184 µM (active) in the test on LXFL 529; 0.0244 µM (active) in the test on RXF 631; 0.112 µM (active) in the test with XF498.

The values are drawn from ChEMBL document CHEMBL1201862, “PubChem BioAssay data set” (2004).
